Measurements from the NIST ThermoML archive (doi:10.1016/j.jct.2017.07.004).
Numbers after ± are expanded uncertainties.

Test: xn = mol fraction of the nth substance listed
Details: 100 kPa, Liquid; for viscosity: Concentric cylinders viscometry; for mass density: Vibrating tube method

CCC=O [propanal] + CCCC(C)O
Details	mass density [kg/m3]	viscosity [mPa·s]
293.15 K, x1 = 0.0809	811 ± 1	3.75 ± 0.3
293.15 K, x1 = 0.1599	813.1 ± 1	3.51 ± 0.28
293.15 K, x1 = 0.2402	814.7 ± 1	3.25 ± 0.26
293.15 K, x1 = 0.35	816.4 ± 1	2.87 ± 0.23
293.15 K, x1 = 0.44	817 ± 1	2.54 ± 0.2
293.15 K, x1 = 0.5599	816.7 ± 1	2.08 ± 0.17
293.15 K, x1 = 0.65	815.8 ± 1	1.73 ± 0.14
293.15 K, x1 = 0.74	814.1 ± 1	1.38 ± 0.11
293.15 K, x1 = 0.85	810.6 ± 1	0.94 ± 0.08
293.15 K, x1 = 0.94	806.5 ± 1	0.57 ± 0.05
293.15 K, x1 = 1	802.4 ± 1	0.34 ± 0.03
298.15 K, x1 = 0.0809	806.6 ± 1	3.11 ± 0.25
298.15 K, x1 = 0.1599	808 ± 1	2.91 ± 0.23
298.15 K, x1 = 0.2402	809.2 ± 1	2.71 ± 0.22
298.15 K, x1 = 0.35	809.9 ± 1	2.42 ± 0.19
298.15 K, x1 = 0.44	810.2 ± 1	2.15 ± 0.17
298.15 K, x1 = 0.5599	809.5 ± 1	1.78 ± 0.14
298.15 K, x1 = 0.65	808.4 ± 1	1.49 ± 0.12
298.15 K, x1 = 0.74	806.6 ± 1	1.2 ± 0.1
298.15 K, x1 = 0.85	803.4 ± 1	0.83 ± 0.07
298.15 K, x1 = 0.94	799.8 ± 1	0.52 ± 0.04
298.15 K, x1 = 1	796.2 ± 1	0.33 ± 0.03
303.15 K, x1 = 0.0809	802.1 ± 1	2.64 ± 0.21
303.15 K, x1 = 0.1599	803.2 ± 1	2.47 ± 0.2
303.15 K, x1 = 0.2402	804 ± 1	2.29 ± 0.18
303.15 K, x1 = 0.35	804.5 ± 1	2.04 ± 0.16
303.15 K, x1 = 0.44	804.4 ± 1	1.82 ± 0.15
303.15 K, x1 = 0.5599	803.5 ± 1	1.52 ± 0.12
303.15 K, x1 = 0.65	802.2 ± 1	1.29 ± 0.1
303.15 K, x1 = 0.74	800.4 ± 1	1.04 ± 0.08
303.15 K, x1 = 0.85	797.1 ± 1	0.73 ± 0.06
303.15 K, x1 = 0.94	793.6 ± 1	0.47 ± 0.04
303.15 K, x1 = 1	790.3 ± 1	0.31 ± 0.03
308.15 K, x1 = 0.0809	797.7 ± 1	2.24 ± 0.18
308.15 K, x1 = 0.1599	798.5 ± 1	2.11 ± 0.17
308.15 K, x1 = 0.2402	798.9 ± 1	1.96 ± 0.16
308.15 K, x1 = 0.35	799 ± 1	1.74 ± 0.14
308.15 K, x1 = 0.44	798.7 ± 1	1.55 ± 0.12
308.15 K, x1 = 0.5599	797.5 ± 1	1.29 ± 0.1
308.15 K, x1 = 0.65	796.1 ± 1	1.1 ± 0.09
308.15 K, x1 = 0.74	794.2 ± 1	0.89 ± 0.07
308.15 K, x1 = 0.85	791 ± 1	0.64 ± 0.05
308.15 K, x1 = 0.94	787.6 ± 1	0.43 ± 0.04
308.15 K, x1 = 1	784.5 ± 1	0.3 ± 0.03
313.15 K, x1 = 0.0809	793.1 ± 1	1.88 ± 0.15
313.15 K, x1 = 0.1599	793.6 ± 1	1.76 ± 0.14
313.15 K, x1 = 0.2402	793.9 ± 1	1.63 ± 0.13
313.15 K, x1 = 0.35	793.8 ± 1	1.45 ± 0.12
313.15 K, x1 = 0.44	793.3 ± 1	1.3 ± 0.1
313.15 K, x1 = 0.5599	792 ± 1	1.09 ± 0.09
313.15 K, x1 = 0.65	790.5 ± 1	0.92 ± 0.07
313.15 K, x1 = 0.74	788.5 ± 1	0.75 ± 0.06
313.15 K, x1 = 0.85	785.3 ± 1	0.56 ± 0.05
313.15 K, x1 = 0.94	781.9 ± 1	0.39 ± 0.03
313.15 K, x1 = 1	779 ± 1	0.28 ± 0.02
318.15 K, x1 = 0.0809	788.6 ± 1	1.55 ± 0.12
318.15 K, x1 = 0.1599	788.9 ± 1	1.45 ± 0.12
318.15 K, x1 = 0.2402	789 ± 1	1.34 ± 0.11
318.15 K, x1 = 0.35	788.7 ± 1	1.19 ± 0.1
318.15 K, x1 = 0.44	788.1 ± 1	1.07 ± 0.09
318.15 K, x1 = 0.5599	786.5 ± 1	0.9 ± 0.07
318.15 K, x1 = 0.65	785 ± 1	0.77 ± 0.06
318.15 K, x1 = 0.74	782.9 ± 1	0.64 ± 0.05
318.15 K, x1 = 0.85	779.6 ± 1	0.49 ± 0.04
318.15 K, x1 = 0.94	776.2 ± 1	0.35 ± 0.03
318.15 K, x1 = 1	773.5 ± 1	0.27 ± 0.02
323.15 K, x1 = 0.0809	783.9 ± 1	1.29 ± 0.1
323.15 K, x1 = 0.1599	783.9 ± 1	1.2 ± 0.1
323.15 K, x1 = 0.2402	783.5 ± 1	1.1 ± 0.09
323.15 K, x1 = 0.35	782.7 ± 1	0.97 ± 0.08
323.15 K, x1 = 0.44	781.8 ± 1	0.87 ± 0.07
323.15 K, x1 = 0.5599	780.1 ± 1	0.74 ± 0.06
323.15 K, x1 = 0.65	778.4 ± 1	0.64 ± 0.05
323.15 K, x1 = 0.74	776.4 ± 1	0.54 ± 0.04
323.15 K, x1 = 0.85	773.4 ± 1	0.42 ± 0.03
323.15 K, x1 = 0.94	770.6 ± 1	0.32 ± 0.03
323.15 K, x1 = 1	768.2 ± 1	0.25 ± 0.02
